# In the oligonucleotide strings, read from the 5' end, every base follows the letter of its sugar. An asterisk marks phosphorothioate; unmarked linkages are phosphodiester. Other units and linkages are bracketed, terminal groups are in braces. A string of capitals states the bases alone. e = 2'-O-(2-methoxyethyl) (MOE); [5mC] = 5-methylcytosine; d = 2'-deoxy (DNA)
# System: human apolipoprotein B mRNA
# Assay: Inhibition of human apolipoprotein B mRNA levels in HepG2 cells, quantitative real-time PCR
# Format: cell-based
# Details: for % INHIB: Table 1; for % INHIB / Percent Inhibition 50 nM / Percent Inhibition 150 nM / Percent Inhibition 250 nM: HepG2 cells; for % INHIB / Percent Inhibition 150 nM: 150 nM; for % INHIB / % INHIB (inhibition of human apolipoprotein B mRNA levels): averages from two experiments; for Percent Inhibition 50 nM / Percent Inhibition 150 nM / Percent Inhibition 250 nM: Table 2; for % INHIB (inhibition of human apolipoprotein B mRNA levels): HepG2 cells treated with 150 nM of compound, quantitative real-time PCR
# Protocol: The human hepatoblastoma cell line HepG2 was obtained from the American Type Culture Collection (Manassas, Va.). HepG2 cells were routinely cultured in Eagle's MEM supplemented with 10% fetal calf serum, non-essential amino acids, and 1 mM sodium pyruvate (Gibco/Life Technologies, Gaithersburg, Md.). Cells were routinely passaged by trypsinization and dilution when they reached 90% confluence. Cells were seeded into 96-well plates (Falcon-Primaria #3872) at a density of 7000 cells/well for use in RT-PCR analysis.
# When cells reached 80% confluency, they were treated with oligonucleotide. For cells grown in 96-well plates, wells were washed once with 200 μL OPTI-MEM™-1 reduced-serum medium (Gibco BRL) and then treated with 130 μL of OPTI-MEM™-1 containing 3.75 μg/mL LIPOFECTIN™ (Gibco BRL) and the desired concentration of oligonucleotide. After 4-7 hours of treatment, the medium was replaced with fresh medium. Cells were harvested 16-24 hours after oligonucleotide treatment.
# Quantitation of apolipoprotein B mRNA levels was determined by real-time quantitative PCR using the ABI PRISM™ 7700 Sequence Detection System (PE-Applied Biosystems, Foster City, Calif.) according to manufacturer's instructions. This is a closed-tube, non-gel-based, fluorescence detection system which allows high-throughput quantitation of polymerase chain reaction (PCR) products in real-time. As opposed to standard PCR, in which amplification products are quantitated after the PCR is completed, products in real-time quantitative PCR are quantitated as they accumulate. This is accomplished by including in the PCR reaction an oligonucleotide probe that anneals specifically between the forward and reverse PCR primers, and contains two fluorescent dyes. A reporter dye (e.g., JOE, FAM, or VIC, obtained from either Operon Technologies Inc., Alameda, Calif. or PE-Applied Biosystems, Foster City, Calif.) is attached to the 5′ end of the probe and a quencher dye (e.g., TAMRA, obtained from either Operon Technologies Inc., Alameda, Calif. or PE-Applied Biosystems, Foster City, Calif.) is attached to the 3′ end of the probe. When the probe and dyes are intact, reporter dye emission is quenched by the proximity of the 3′ quencher dye. During amplification, annealing of the probe to the target sequence creates a substrate that can be cleaved by the 5′-exonuclease activity of Taq polymerase. […] With each cycle, additional reporter dye molecules are cleaved from their respective probes, and the fluorescence intensity is monitored at regular intervals by laser optics built into the ABI PRISM™ 7700 Sequence Detection System. In each assay, a series of parallel reactions containing serial dilutions of mRNA from untreated control samples generates a standard curve that is used to quantitate the percent inhibition after antisense oligonucleotide treatment of test samples.
# PCR reagents were obtained from PE-Applied Biosystems, Foster City, Calif. RT-PCR reactions were carried out by adding 25 μL PCR cocktail (1× TAQMAN™ buffer A, 5.5 mM MgCl2, 300 μM each of DATP, dCTP and dGTP, 600 μM of dUTP, 100 nM each of forward primer, reverse primer, and probe, 20 Units RNAse inhibitor, 1.25 Units AMPLITAQ GOLD™, and 12.5 Units MuLV reverse transcriptase) to 96 well plates containing 25 μL total RNA solution. The RT reaction was carried out by incubation for 30 minutes at 48° C. Following a 10 minute incubation at 95° C. to activate the AMPLITAQ GOLD™, 40 cycles of a two-step PCR protocol were carried out: 95° C. for 15 seconds (denaturation) followed by 60° C. for 1.5 minutes (annealing/extension).
# Gene target quantities obtained by real time RT-PCR are normalized using either the expression level of GAPDH, a gene whose expression is constant, or by quantifying total RNA using RiboGreen™ (Molecular Probes, Inc. Eugene, Oreg.). GAPDH expression is quantified by real time RT-PCR, by being run simultaneously with the target, multiplexing, or separately. […]
Substance,% INHIB,other results
147780 (antisense e[5mC]*e[5mC]*eG*e[5mC]*eA*dG*dG*dT*d[5mC]*d[5mC]*d[5mC]*dG*dG*dT*dG*eG*eG*eA*eA*eT) [compound 147780],40%,–
147781 (antisense eA*e[5mC]*e[5mC]*eG*eA*dG*dA*dA*dG*dG*dG*d[5mC]*dA*d[5mC]*dT*e[5mC]*eA*eG*e[5mC]*e[5mC]) [compound 147781],35%,–
147782 (antisense eG*e[5mC]*e[5mC]*eT*e[5mC]*dG*dG*d[5mC]*d[5mC]*dT*d[5mC]*dG*d[5mC]*dG*dG*e[5mC]*e[5mC]*e[5mC]*eT*eG) [compound 147782],67%,–
147784 (antisense e[5mC]*eA*eG*e[5mC]*eG*d[5mC]*d[5mC]*dA*dG*d[5mC]*dA*dG*d[5mC]*dG*d[5mC]*e[5mC]*eA*eG*e[5mC]*eA) [compound 147784],70%,–
147785 (antisense eG*e[5mC]*e[5mC]*e[5mC]*eG*d[5mC]*d[5mC]*dA*dG*d[5mC]*dA*dG*d[5mC]*dA*dG*e[5mC]*eA*eG*e[5mC]*eA) [compound 147785],29%,–
147786 (antisense e[5mC]*eT*eT*eG*eA*dA*dT*d[5mC]*dA*dG*d[5mC]*dA*dG*dT*d[5mC]*e[5mC]*e[5mC]*eA*eG*eG) [compound 147786],34%,–
147788 (antisense eT*eT*eT*e[5mC]*eT*dG*dT*dT*dG*d[5mC]*d[5mC]*dA*d[5mC]*dA*dT*eT*eG*e[5mC]*e[5mC]*e[5mC]) [compound 147788],95%,Percent Inhibition 50 nM: 54%; Percent Inhibition 150 nM: 63%; Percent Inhibition 250 nM: 72%
147789 (antisense eG*eG*eA*eA*eG*dA*dG*dG*dT*dG*dT*dT*dG*d[5mC]*dT*e[5mC]*e[5mC]*eT*eT*eG) [compound 147789],24%,–
147790 (antisense eT*eG*eT*eG*e[5mC]*dT*dA*d[5mC]*d[5mC]*dA*dT*d[5mC]*d[5mC]*d[5mC]*dA*eT*eA*e[5mC]*eT*eT) [compound 147790],33%,–
147792 (antisense eG*eG*eA*e[5mC]*eA*d[5mC]*d[5mC]*dT*d[5mC]*dA*dA*dT*d[5mC]*dA*dG*e[5mC]*eT*eG*eT*eG) [compound 147792],26%,–
147794 (antisense eG*eT*eA*eA*eT*d[5mC]*dT*dT*d[5mC]*dA*dT*d[5mC]*d[5mC]*d[5mC]*d[5mC]*eA*eG*eT*eG*e[5mC]) [compound 147794],47%,–
147796 (antisense eG*e[5mC]*eA*eG*e[5mC]*d[5mC]*dA*dG*dT*d[5mC]*dG*d[5mC]*dT*dT*dA*eT*e[5mC]*eT*e[5mC]*e[5mC]) [compound 147796],8%,–
147801 (antisense e[5mC]*eA*eG*eA*e[5mC]*d[5mC]*d[5mC]*dG*dA*d[5mC]*dT*d[5mC]*dG*dT*dG*eG*eA*eA*eG*eA) [compound 147801],38%,–
147806 (antisense eA*eT*eG*eT*eG*dG*dT*dA*dA*d[5mC]*dG*dA*dG*d[5mC]*d[5mC]*e[5mC]*eG*eA*eA*eG) [compound 147806],100%,Percent Inhibition 50 nM: 23%; Percent Inhibition 150 nM: 45%; Percent Inhibition 250 nM: 28%
147807 (antisense eG*eG*e[5mC]*eG*eT*dA*dG*dA*dG*dA*d[5mC]*d[5mC]*d[5mC]*dA*dT*e[5mC]*eA*e[5mC]*eA*eT) [compound 147807],25%,–
147809 (antisense e[5mC]*e[5mC]*e[5mC]*eA*eG*dT*dG*dA*dT*dA*dG*d[5mC]*dT*d[5mC]*dT*eG*eT*eG*eA*eG) [compound 147809],60%,–
147810 (antisense eA*eT*eT*eT*e[5mC]*dA*dG*d[5mC]*dA*dT*dA*dT*dG*dA*dG*e[5mC]*e[5mC]*e[5mC]*eA*eT) [compound 147810],0%,–

Substance,% INHIB,other results
147814 (antisense e[5mC]*e[5mC]*e[5mC]*eA*eA*dT*dA*dA*dG*dA*dT*dT*dT*dA*dT*eA*eA*e[5mC]*eA*eA) [compound 147814],34%,–
147815 (antisense eT*eG*eG*e[5mC]*e[5mC]*dT*dA*d[5mC]*d[5mC]*dA*dG*dA*dG*dA*d[5mC]*eA*eG*eG*eT*eA) [compound 147815],45%,–
147816 (antisense eT*e[5mC]*eA*eT*eA*d[5mC]*dG*dT*dT*dT*dA*dG*d[5mC]*d[5mC]*d[5mC]*eA*eA*eT*e[5mC]*eT) [compound 147816],100%,Percent Inhibition 50 nM: 25%; Percent Inhibition 150 nM: 81%; Percent Inhibition 250 nM: 65%
147817 (antisense eG*e[5mC]*eA*eT*eG*dG*dT*d[5mC]*d[5mC]*d[5mC]*dA*dA*dG*dG*dA*eT*eG*eG*eT*e[5mC]) [compound 147817],0%,–
147818 (antisense eA*eG*eT*eG*eA*dT*dG*dG*dA*dA*dG*d[5mC]*dT*dG*d[5mC]*eG*eA*eT*eA*e[5mC]) [compound 147818],30%,–
147820 (antisense eG*eA*eA*e[5mC]*eA*d[5mC]*dA*dT*dA*dG*d[5mC]*d[5mC]*dG*dA*dA*eT*eG*e[5mC]*e[5mC]*eG) [compound 147820],100%,Percent Inhibition 50 nM: 10%; Percent Inhibition 150 nM: 0%; Percent Inhibition 250 nM: 73%
147823 (antisense eT*eG*e[5mC]*e[5mC]*e[5mC]*dT*dG*d[5mC]*dA*dG*d[5mC]*dT*dT*d[5mC]*dA*e[5mC]*eT*eG*eA*eA) [compound 147823],19%,–
147825 (antisense eA*eG*eA*eA*eG*d[5mC]*dT*dG*d[5mC]*d[5mC]*dT*d[5mC]*dT*dT*d[5mC]*eT*eT*e[5mC]*e[5mC]*e[5mC]) [compound 147825],72%,–
147826 (antisense eT*e[5mC]*eA*eG*eG*dG*dT*dG*dA*dG*d[5mC]*d[5mC]*d[5mC]*dT*dG*eT*eG*eT*eG*eT) [compound 147826],80%,–
147827 (antisense e[5mC]*eT*eA*eA*eT*dG*dG*d[5mC]*d[5mC]*d[5mC]*d[5mC]*dT*dT*dG*dA*eT*eA*eA*eA*e[5mC]) [compound 147827],13%,–
147828 (antisense eA*e[5mC]*eG*eT*eT*dA*dT*d[5mC]*d[5mC]*dT*dT*dG*dA*dG*dT*e[5mC]*e[5mC]*e[5mC]*eT*eG) [compound 147828],12%,–
147829 (antisense eT*eA*eT*eA*eT*d[5mC]*d[5mC]*d[5mC]*dA*dG*dG*dT*dT*dT*d[5mC]*e[5mC]*e[5mC]*e[5mC]*eG*eG) [compound 147829],64%,–
147831 (antisense e[5mC]*eT*eG*e[5mC]*e[5mC]*dT*dA*d[5mC]*dT*dG*d[5mC]*dA*dA*dG*dG*e[5mC]*eT*eG*eG*e[5mC]) [compound 147831],0%,–
147833 (antisense eA*eT*eG*eA*eT*dA*d[5mC]*dA*d[5mC]*dA*dA*dT*dA*dA*dA*eG*eA*e[5mC]*eT*e[5mC]) [compound 147833],25%,–
270985 (antisense eT*eT*e[5mC]*e[5mC]*eT*d[5mC]*dT*dT*d[5mC]*dG*dG*d[5mC]*d[5mC]*d[5mC]*dT*eG*eG*e[5mC]*eG*e[5mC]) [compound 270985],–,% INHIB (inhibition of human apolipoprotein B mRNA levels): 75%
270986 (antisense e[5mC]*eT*e[5mC]*e[5mC]*eA*d[5mC]*dT*dG*dG*dA*dA*d[5mC]*dT*d[5mC]*dT*e[5mC]*eA*eG*e[5mC]*e[5mC]) [compound 270986],–,% INHIB (inhibition of human apolipoprotein B mRNA levels): 0%

# From patent US7803930B2, “Antisense modulation of apolipoprotein B-expression” (Isis Pharmaceuticals, Inc., priority 2002, dated 2010)
